Assay results: patent US20130189347A1, “DISEASE TREATMENT DRUG” (priority 2010, published 2013)

Experiments:
B16 melanoma cells [1] = assay: Early-stage cancer: rate of increase in tumor volume in B16 melanoma-transplanted mice; format: in vivo, ICR mice; details: CDDP 0.9 mM, 0.2 ml/mouse/dose via tail vein
Method: Five female, six-week-old IRC mice were assigned per group.
iron porphyrin complex/PLLA60wt%-F88 micelles (polymer capsule, 5 mM/0.7 wt %) were used.
As the sample drug (concentration) of the comparative example, CDDP (0.9 mM) was used.
(§1) B16 melanoma cells were used.
The amount of cancer cells injected was 1×10^5/mouse/0.05 ml, which is 1/10 that for end-stage cancer.
(§2) Anchoring of the cancer was confirmed on the 10th day after cancer cell transplantation. The mice were separated into five mice each for the required number of groups (three groups: two groups for the sample drugs and one control group). At the same time, the short diameter and the long diameter of the cancer cell volume in each mouse were measured every two days using calipers. The following equation was calculated:
(§3) [tumor volume]=½×[long diameter]×[short diameter]^2

B16 melanoma cells [2] = assay: End-stage cancer: rate of increase in tumor volume in B16 melanoma-transplanted mice; format: in vivo, C57BL/6CrSlC mice
Method: iron porphyrin complex/pH-sensitive liposomes (5 mM/36 mM) and iron porphyrin complex/DPPC-PEG liposomes (5 mM/36 mM) were used […]
as §1
as §2, with “groups (four” for “groups (three”, “groups: three” for “groups: two”
as §3

[3] = End-stage cancer experiment: weight fluctuation, death and side effects
Method: Five female, six-week-old C57BL/6CrSlC mice were assigned per group.
B16 melanoma dispersed in phosphate buffered saline (PBS) was injected into the foot pads (sole) of the mice (C57BL/6, female, six-weeks-old), and cancer was transplanted. The amount of cancer cells injected was 1×10^6/mouse/0.05 ml. The site of injection was within the limited area of the foot pad, in an environment where numerous fine blood vessels, such as capillaries, are present.
In addition, administration of the sample drugs (administered amount: 0.1 ml/mouse/dose) was started on the 13th day after cancer cell transplantation. Drug administration was conducted a total of four times, via tail vein every four days. The weight of each mouse was measured every two days.

| SMILES | suppression of increase in tumor volume (B16 melanoma cells [1]) | observation of the transplanted foot (B16 melanoma cells [2]) | course of tumor volume (B16 melanoma cells [2]; four days after administration of the drug) | mice that died ([3]; during 20 days of observation, five mice per group, MMC 0.9 mM, 0.5 mM) | weight increase and decrease (weight fluctuation) ([3]; end-stage cancer, weight measured every two days, FIG. 5) |
| --- | --- | --- | --- | --- | --- |
| [NH2][Pt]([NH2])([Cl])[Cl] [CDDP, Cisplatin] | about ten |  |  |  |  |
| CO[C@@]12[C@H](COC(N)=O)C3=C(C(=O)C(C)=C(N)C3=O)N1C[C@@H]1N[C@@H]12 [MMC, mitomycin] |  | necrosis occurred in the foot itself | sudden increase in tumor volume | two | severe weight fluctuations |
